Data as given in patent US7572797B2, “Amino substituted pyrazine derivatives for the treatment of pain” (Pfizer Inc., priority 2005, dated 2009).

Key:
[1] = system: tetrodotoxin-sensitive voltage-gated sodium channels including NaV1.2, NaV1.3 and NaV1.7 (SHSY-5Y cell line); test: TTX-S assay in SHSY-5Y cell line (VIPR procedure, veratridine as opener); type: cell-based; conditions: read-out: TTX-S IC50; SHSY-5Y cells; veratridine 50 μM; automated dissolution procedure; average of replicates
Human Nav1.8 = molecular target: T1, Human Nav1.8 (Homo sapiens, UniProt Q9Y5Y9); test: VIPR assay for Nav1.8 (FRET membrane potential, deltamethrin as opener); type: cell-based; conditions: automated dissolution procedure; for IC50: HEK293 cells expressing human Nav1.8, average of replicates; for Selectivity Ratio: TTX-S IC50 / NaV1.8 IC50
T1 construct: expressed in transfected cells
T1 sequence (Q9Y5Y9 whole entry): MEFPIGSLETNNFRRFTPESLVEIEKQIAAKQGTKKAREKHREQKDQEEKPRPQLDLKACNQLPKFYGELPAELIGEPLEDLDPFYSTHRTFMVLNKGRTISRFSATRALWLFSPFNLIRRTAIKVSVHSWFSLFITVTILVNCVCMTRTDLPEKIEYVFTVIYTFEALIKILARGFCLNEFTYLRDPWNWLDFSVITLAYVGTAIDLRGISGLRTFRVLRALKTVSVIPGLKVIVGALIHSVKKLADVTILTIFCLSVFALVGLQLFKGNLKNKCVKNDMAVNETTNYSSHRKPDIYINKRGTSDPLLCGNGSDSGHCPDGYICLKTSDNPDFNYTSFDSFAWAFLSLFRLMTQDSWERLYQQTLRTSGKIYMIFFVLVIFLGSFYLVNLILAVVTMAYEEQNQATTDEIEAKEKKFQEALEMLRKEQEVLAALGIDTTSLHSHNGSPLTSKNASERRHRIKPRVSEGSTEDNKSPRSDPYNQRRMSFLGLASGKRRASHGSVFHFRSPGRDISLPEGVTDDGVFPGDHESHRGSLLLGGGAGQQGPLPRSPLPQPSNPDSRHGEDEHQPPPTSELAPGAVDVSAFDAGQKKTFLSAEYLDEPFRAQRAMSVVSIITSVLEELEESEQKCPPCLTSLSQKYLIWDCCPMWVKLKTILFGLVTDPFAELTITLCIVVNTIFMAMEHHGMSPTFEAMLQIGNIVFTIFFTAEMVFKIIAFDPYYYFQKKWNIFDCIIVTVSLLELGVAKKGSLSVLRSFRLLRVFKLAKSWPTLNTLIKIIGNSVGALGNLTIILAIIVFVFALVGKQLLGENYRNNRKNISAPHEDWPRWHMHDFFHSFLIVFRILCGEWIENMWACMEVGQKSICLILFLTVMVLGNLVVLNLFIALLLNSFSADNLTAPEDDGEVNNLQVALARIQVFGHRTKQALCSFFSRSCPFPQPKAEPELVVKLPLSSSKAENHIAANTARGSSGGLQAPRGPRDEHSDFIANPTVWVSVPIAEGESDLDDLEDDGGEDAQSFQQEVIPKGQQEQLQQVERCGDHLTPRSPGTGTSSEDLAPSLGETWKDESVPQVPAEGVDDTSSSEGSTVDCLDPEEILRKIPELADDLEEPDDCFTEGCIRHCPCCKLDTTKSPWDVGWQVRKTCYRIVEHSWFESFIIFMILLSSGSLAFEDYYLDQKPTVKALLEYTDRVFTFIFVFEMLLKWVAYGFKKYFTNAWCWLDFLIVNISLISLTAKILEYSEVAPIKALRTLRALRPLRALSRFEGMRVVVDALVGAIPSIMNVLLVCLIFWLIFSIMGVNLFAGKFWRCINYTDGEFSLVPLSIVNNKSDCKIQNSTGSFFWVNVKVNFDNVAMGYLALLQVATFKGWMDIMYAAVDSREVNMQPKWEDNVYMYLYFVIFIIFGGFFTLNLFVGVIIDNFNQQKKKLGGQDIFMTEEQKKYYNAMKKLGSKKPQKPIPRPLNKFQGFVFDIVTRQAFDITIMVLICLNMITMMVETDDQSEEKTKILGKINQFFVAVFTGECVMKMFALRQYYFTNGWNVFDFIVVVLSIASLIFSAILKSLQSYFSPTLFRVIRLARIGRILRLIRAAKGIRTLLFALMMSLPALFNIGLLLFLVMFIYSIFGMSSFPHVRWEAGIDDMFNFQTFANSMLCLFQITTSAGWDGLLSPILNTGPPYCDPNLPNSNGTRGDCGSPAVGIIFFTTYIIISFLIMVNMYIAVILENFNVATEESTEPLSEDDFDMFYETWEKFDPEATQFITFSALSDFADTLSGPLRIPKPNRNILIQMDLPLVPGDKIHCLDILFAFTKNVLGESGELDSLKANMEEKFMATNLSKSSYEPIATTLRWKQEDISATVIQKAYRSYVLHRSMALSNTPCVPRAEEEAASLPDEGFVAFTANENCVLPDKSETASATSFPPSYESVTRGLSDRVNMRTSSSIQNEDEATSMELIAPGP

SMILES | IC50 [1] [µM] | IC50 (Human Nav1.8) [µM] | Selectivity Ratio (Human Nav1.8)
Cc1nonc1C(=O)Nc1cnc(-c2cccc3ccccc23)c(N)n1 [Example 44, N-[6-amino-5-(1-naphthyl)pyrazin-2-yl]-4-methyl-1,2,5-oxadiazole-3-carboxamide] | > 27.4 | 16.5 | >1.67
COc1cc(Cl)cc(-c2ncc(NC(=O)c3cnoc3)nc2N)c1Cl [Example 48, N-[6-amino-5-(2,5-dichloro-3-methoxyphenyl)pyrazin-2-yl]isoxazole-4-carboxamide] | > 30.2 | 8.06 | >3.75
COc1cc(Cl)cc(-c2ncc(NC(=O)c3conc3C)nc2N)c1Cl [Example 49, N-[6-Amino-5-(2,5-dichloro-3-methoxyphenyl)pyrazin-2-y]-3-methylisoxazole-4-carboxamide] | > 13.6 | 0.629 | >21.6
Cc1oncc1C(=O)Nc1cnc(-c2ccccc2Cl)c(N)n1 [Example 50, N-[6-amino-5-(2-chlorophenyl)pyrazin-2-yl]-5-methylisoxazole-4-carboxamide] | > 29.9 | 10.3 | >2.90
CC(C)c1oncc1C(=O)Nc1cnc(-c2ccccc2Cl)c(N)n1 [Example 51, N-[6-amino-5-(2-chlorophenyl)pyrazin-2-yl]-5-isopropylisoxazole-4-carboxamide] | > 21.1 | 0.964 | >21.89
Cc1nonc1C(=O)Nc1cnc(-c2ccccc2Cl)c(N)n1 [Example 55, N-[6-amino-5-(2-chlorophenyl)pyrazin-2-yl]-4-methyl-1,2,5-oxadiazole-3-carboxamide] | > 30.2 | > 21.5 | ->1.40
COCCn1nccc1C(=O)Nc1cnc(-c2ccccc2Cl)c(N)n1 [Example 56, N-[6-amino-5-(2-chlorophenyl)pyrazin-2-yl]-1-(2-methoxyethyl)-1H-pyrazole-5-carboxamide] | > 30.2 | > 26.7 | 
Cn1nccc1C(=O)Nc1cnc(-c2ccccc2Cl)c(N)n1 [Example 57, N-[6-amino-5-(2-chlorophenyl)pyrazin-2-yl]-1-methyl-1H-pyrazole-5-carboxamide] | > 30.2 | > 28.4 | 
COCCn1nccc1C(=O)Nc1cnc(-c2cccc(Cl)c2Cl)c(N)n1 [Example 58, N-[6-amino-5-(2,3-dichlorophenyl)pyrazin-2-yl]-1-(2-methoxyethyl)-1H-pyrazole-5-carboxamide] | > 30.2 | 9.42 | >3.21
Cc1nonc1C(=O)Nc1cnc(-c2cccc(Cl)c2Cl)c(N)n1 [Example 59, N-[6-amino-5-(2,3-dichlorophenyl)pyrazin-2-yl]-4-methyl-1,2,5-oxadiazole-3-carboxamide] | > 25.9 | 7.23 | >3.58
Nc1nc(NC(=O)c2cnoc2)cnc1-c1cccc(Cl)c1Cl [Example 60, N-[6-amino-5-(2,3-dichlorophenyl)pyrazin-2-yl]isoxazole-4-carboxamide] | > 30.2 | 7.19 | >4.20
Nc1nc(NC(=O)c2ccn[nH]2)cnc1-c1cc(Cl)ccc1Cl [Example 62, N-[6-amino-5-(2,5-dichlorophenyl)pyrazin-2-yl]-1H-pyrazole-5-carboxamide] | > 30.2 | > 30.2 | 
